Target: T1, AKT1-E17K (Homo sapiens, UniProt P31749, E17K)
T1 construct: host or cells: HEK-293 (ATCC CRL-1573)
Assay: NanoBRET Target Engagement (TE) Assay
Type: cell-based
Details: full length AKT E17K NanoLuc fusion in transfected HEK-293 cells; 2 hr equilibration with tracer and compound
Source text: NanoBRET is a highly specific and validated cell-based technique for assessing target engagement (Vasta et al., 2018, Cell Chem Biol. 25(2):206-214). The NanoBRET™ Target Engagement (TE) Intracellular Kinase Assays are based on the NanoBRET™ System (Promega Corporation), an energy transfer technique designed to measure molecular proximity in living cells. The NanoBRET™ TE Assays measure the apparent affinity of test compounds by competitive displacement of the NanoBRET™ tracer compound, which is a cell permeable molecule engineered to be reversibly bound to a NanoLuc® luciferase-kinase fusion expressed in cells. For compound screening, when a test compound binds to the selected kinase, the BRET signal is attenuated. For kinase inhibitors in particular, intracellular target selectivity is fundamental to pharmacological mechanism and allows the proteins of interest to be in the correct cellular confirmation. Although non-cell-based techniques have been developed to measure kinase binding or enzymatic inhibition with accuracy and precision, such approaches can fail to accurately predict engagement of the full-length target protein in the more complex and biologically relevant cellular context (Knight and Shokat, 2005, Chem. Biol. 12, 621-637; Smyth and Collins, 2009, J. Chem. Biol. 2, 131-151). […] Briefly, HEK-293 cells (ATCC Cat #CRL-1573) were used for transfection purposes using FuGENE HD Transfection Reagent (Promega Cat #E2311). All cells were evaluated for viability prior to transfection and optimization of the transfection was done prior to experimentation. Greater than 95% viability was used for all experiments. Following transfection, cells were washed and resuspended in Opti-MEM. NanoBRET assays were performed in white, 384-well plates (Corning) at a density of 2×10^5 cells/well. All example compounds were prepared as concentrated stock solutions in DMSO (Sigma-Aldrich). Compounds are dissolved in DMSO to make 10 mM stock solution. Example compounds were transferred as 40 μL of 10 mM stock solution to a 384 pp-plate (LABCYTE, PP-0200) and diluted in 3-fold, 10-point dilution via transferring […] by Apricot liquid handler. A Labcyte ECHO 550 compound dispenser was used to facilitate compound transfer directly to cells. Cells were equilibrated for 2 hr with energy transfer probes and example compound prior to BRET measurements. The AKTE17K (Promega Cat #NV2421) as well as specific probe (NanoBRET tracer, Promega Cat #N264B) was prepared at a concentration of 20× in tracer dilution buffer (12.5 mM HEPES, 31.25% PEG-400, pH 7.5). For target engagement analysis, the energy transfer probes were added to the cells at concentrations optimized for the target in question (AKT E17K). Following compound incubation, NanoBRET NanoGlo Substrate (Promega Cat #N157D) and Extracellular Nanoluc Inhibitor (Promega Cat #N235C) was added according to the manufacturer's recommended protocol, and luminescence was measured on Envision Reader (Perkin Elmer) Multimode Luminometer equipped with 450 nmBPfilter (donor) and 600 nmLPfilter (acceptor), using 0.5 s integration time. Milli-BRET units (mBU) are calculated by multiplying the raw BRET values by 1000. Apparent tracer affinity values (EC50) were determined using the sigmoidal dose-response (variable slope). Competitive displacement data were then plotted and data were fit to determine the EC50 value for each example compound.

T1 sequence (P31749 whole entry E17K): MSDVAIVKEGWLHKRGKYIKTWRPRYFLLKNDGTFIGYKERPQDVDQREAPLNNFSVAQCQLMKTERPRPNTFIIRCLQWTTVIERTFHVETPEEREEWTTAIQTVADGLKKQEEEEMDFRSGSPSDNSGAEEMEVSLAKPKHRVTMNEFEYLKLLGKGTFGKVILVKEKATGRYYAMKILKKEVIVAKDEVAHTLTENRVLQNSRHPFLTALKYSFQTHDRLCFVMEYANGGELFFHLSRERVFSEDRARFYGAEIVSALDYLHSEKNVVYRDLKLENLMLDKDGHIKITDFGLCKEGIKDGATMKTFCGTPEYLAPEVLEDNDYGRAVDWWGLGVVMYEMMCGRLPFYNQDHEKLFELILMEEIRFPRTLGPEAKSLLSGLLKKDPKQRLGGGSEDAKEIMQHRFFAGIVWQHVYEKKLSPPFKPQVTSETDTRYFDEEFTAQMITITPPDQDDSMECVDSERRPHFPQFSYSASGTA

Row | IC50 | SMILES
1 | < 15 nM | N#CN1CCC2(C1)CN(Cc1ccc(-n3c(-c4cccnc4N)nc4ccc(-c5ccccc5)nc43)cc1)C2 [Example 38, 2-(4-(2-(2-Aminopyridin-3-yl)-5-phenyl-3H-imidazo[4,5-b]pyridin-3-yl)benzyl)-2,6-diazaspiro[3.4]octane-6-carbonitrile]
2 | 60 to 600 nM | N#CN1CCCC2(C1)CN(Cc1ccc(-n3c(-c4cccnc4N)nc4ccc(-c5ccccc5)nc43)cc1)C2 [Example 39, 2-(4-(2-(2-Aminopyridin-3-yl)-5-phenyl-3H-imidazo[4,5-b]pyridin-3-yl)benzyl)-2,6-diazaspiro[3.5]nonane-6-carbonitrile]
3 | < 15 nM | N#CN1CC[C@]2(CCN(Cc3ccc(-n4c(-c5cccnc5N)nc5ccc(-c6ccccc6)nc54)cc3)C2)C1 [Example 40, (S)-7-(4-(2-(2-Aminopyridin-3-yl)-5-phenyl-3H-imidazo[4,5-b]pyridin-3-yl)benzyl)-2,7-diazaspiro[4.4]nonane-2-carbonitrile]
4 | 15 to 60 nM | [2H]C([2H])([2H])N(C#N)C1CCN(Cc2ccc(-n3c(-c4cccnc4N)nc4ccc(-c5ccccc5)nc43)cc2)CC1 [Example 41, N-(1-(4-(2-(2-Aminopyridin-3-yl)-5-phenyl-3H-imidazo[4,5-b]pyridin-3-yl)benzyl)piperidin-4-yl)-N-(methyl-d3)cyanamide]
5 | < 15 nM | N#CNN1CCN(Cc2ccc(-n3c(-c4cccnc4N)nc4ccc(-c5ccccc5)nc43)cc2)CC1 [Example 42, N-(4-(4-(2-(2-Aminopyridin-3-yl)-5-phenyl-3H-imidazo[4,5-b]pyridin-3-yl)benzyl)piperazin-1-yl)cyanamide]
6 | 60 to 600 nM | N#CN1C[C@@H]2CN(Cc3ccc(-n4c(-c5cccnc5N)nc5ccc(-c6ccccc6)nc54)cc3)C[C@@H]2C1 [Example 43, (3aR,6aS)-5-(4-(2-(2-Aminopyridin-3-yl)-5-phenyl-3H-imidazo[4,5-b]pyridin-3-yl)benzyl)hexahydropyrrolo[3,4-c]pyrrole-2(1H)-carbonitrile]

Reference: patent US20260193274A1, “AKT1 MODULATORS” (Alterome Therapeutics, Inc., priority 2022, published 2026)
